Source: ChEMBL document CHEMBL4811247, “Small molecule and macrocyclic pyrazole derived inhibitors of myeloperoxidase (MPO)” (Bioorg Med Chem Lett, 2021)

Legend:
[1] = molecular target: T1, Myeloperoxidase (Homo sapiens, UniProt P05164)
T1 sequence (P05164 whole entry): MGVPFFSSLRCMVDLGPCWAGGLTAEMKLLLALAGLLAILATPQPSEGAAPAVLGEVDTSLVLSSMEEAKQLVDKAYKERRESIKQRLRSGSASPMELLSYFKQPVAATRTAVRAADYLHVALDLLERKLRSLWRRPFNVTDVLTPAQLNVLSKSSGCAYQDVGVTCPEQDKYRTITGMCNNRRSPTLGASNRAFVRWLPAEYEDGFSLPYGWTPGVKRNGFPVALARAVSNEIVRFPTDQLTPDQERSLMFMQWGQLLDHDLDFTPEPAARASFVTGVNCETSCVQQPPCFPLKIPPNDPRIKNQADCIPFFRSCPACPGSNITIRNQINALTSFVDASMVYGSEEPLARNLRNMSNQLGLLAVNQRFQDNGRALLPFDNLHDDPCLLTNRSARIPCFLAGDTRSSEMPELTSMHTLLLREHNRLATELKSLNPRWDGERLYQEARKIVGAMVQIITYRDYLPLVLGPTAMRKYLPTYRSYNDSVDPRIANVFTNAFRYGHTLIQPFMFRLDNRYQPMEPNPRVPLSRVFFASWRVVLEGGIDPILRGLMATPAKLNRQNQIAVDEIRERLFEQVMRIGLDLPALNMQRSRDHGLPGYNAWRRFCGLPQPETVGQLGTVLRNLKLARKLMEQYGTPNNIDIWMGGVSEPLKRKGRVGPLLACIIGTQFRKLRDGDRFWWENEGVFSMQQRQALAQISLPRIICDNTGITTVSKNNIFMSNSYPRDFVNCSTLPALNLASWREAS
Description: Inhibition of MPO (unknown origin) chlorination activity incubated for 10 mins followed by NaCl addition by aminophenyl fluorescein assay

[2] = molecular target: T2, Thyroid peroxidase (Homo sapiens, UniProt P07202); assay: (§1) Inhibition of C-terminal hexaHis-tagged TPO (unknown origin) expressed in Trichoplusia ni insect cells using 3-iodo tyrosine as substrate preincubated for 10 mins followed by substrate and H2O2 addition and further incubated for 15 mins
T2 sequence (P07202 whole entry): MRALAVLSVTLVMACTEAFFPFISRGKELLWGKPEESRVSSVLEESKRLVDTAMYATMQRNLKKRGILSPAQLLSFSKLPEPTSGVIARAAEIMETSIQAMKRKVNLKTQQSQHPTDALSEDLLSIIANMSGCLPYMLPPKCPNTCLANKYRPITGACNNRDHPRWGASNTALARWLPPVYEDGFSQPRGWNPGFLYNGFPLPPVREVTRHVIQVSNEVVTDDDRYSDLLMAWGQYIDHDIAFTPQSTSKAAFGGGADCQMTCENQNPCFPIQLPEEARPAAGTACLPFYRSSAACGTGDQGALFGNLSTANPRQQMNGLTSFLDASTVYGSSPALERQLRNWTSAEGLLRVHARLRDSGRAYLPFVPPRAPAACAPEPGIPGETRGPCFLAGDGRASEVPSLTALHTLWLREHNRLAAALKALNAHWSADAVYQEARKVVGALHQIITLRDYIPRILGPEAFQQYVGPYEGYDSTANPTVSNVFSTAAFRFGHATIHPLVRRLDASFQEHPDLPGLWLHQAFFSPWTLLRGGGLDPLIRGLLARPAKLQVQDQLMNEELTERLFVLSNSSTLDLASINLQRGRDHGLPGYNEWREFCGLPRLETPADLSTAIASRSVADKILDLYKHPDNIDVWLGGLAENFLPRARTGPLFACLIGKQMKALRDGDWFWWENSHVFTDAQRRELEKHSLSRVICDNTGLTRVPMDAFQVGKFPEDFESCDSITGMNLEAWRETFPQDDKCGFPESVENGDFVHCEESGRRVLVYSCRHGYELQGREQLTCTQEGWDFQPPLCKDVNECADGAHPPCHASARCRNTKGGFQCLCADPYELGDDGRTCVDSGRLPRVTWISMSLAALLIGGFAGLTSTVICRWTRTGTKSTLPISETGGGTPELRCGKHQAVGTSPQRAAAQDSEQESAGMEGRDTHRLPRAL

[3] = molecular target: Cytochrome P450 3A4 (Homo sapiens, UniProt P08684); assay: Time dependent inhibition of CYP3A4 (unknown origin) measured at 30 mins; type: ADME
[4] = molecular target: CYP3A4 (Homo sapiens, UniProt P08684); assay: Ratio of IC50 for time dependent inhibition of CYP3A4 (unknown origin) measured at 5 mins to IC50 for time dependent inhibition of CYP3A4 (unknown origin) measured at 30 mins; conditions: read-out: Ratio IC50
[5] = Protein binding in human plasma; type: ADME, cell-free; conditions: read-out: PPB (converted)
[6] = Half life in human liver microsomes; type: ADME, Microsome
[7] = Half life in mouse at 1 mg/kg, iv; type: ADME, organism-based; conditions: in vivo
[8] = Volume of distribution at steady state in mouse at 1 mg/kg, iv; type: ADME, organism-based; conditions: in vivo, read-out: Vdss
[9] = Clearance in mouse at 1 mg/kg, iv; type: ADME, organism-based; conditions: in vivo
[10] = Permeability of the compound by PAMPA method; type: ADME
[11] = molecular target: T1, Myeloperoxidase; assay: Inhibition of PMA-induced MPO in human Neutrophil incubated for 3 mins by luminometry; type: tissue-based
[12] = species: Homo sapiens; assay: as §1, with “Selectivity ratio” for “Inhibition”, “of IC50 for MPO (unknown origin) chlorination activity incubated for 10 mins followed by NaCl addition by aminophenyl fluorescein assay to IC50 for” for “of”

CYP3A4, sequence (P08684 whole entry): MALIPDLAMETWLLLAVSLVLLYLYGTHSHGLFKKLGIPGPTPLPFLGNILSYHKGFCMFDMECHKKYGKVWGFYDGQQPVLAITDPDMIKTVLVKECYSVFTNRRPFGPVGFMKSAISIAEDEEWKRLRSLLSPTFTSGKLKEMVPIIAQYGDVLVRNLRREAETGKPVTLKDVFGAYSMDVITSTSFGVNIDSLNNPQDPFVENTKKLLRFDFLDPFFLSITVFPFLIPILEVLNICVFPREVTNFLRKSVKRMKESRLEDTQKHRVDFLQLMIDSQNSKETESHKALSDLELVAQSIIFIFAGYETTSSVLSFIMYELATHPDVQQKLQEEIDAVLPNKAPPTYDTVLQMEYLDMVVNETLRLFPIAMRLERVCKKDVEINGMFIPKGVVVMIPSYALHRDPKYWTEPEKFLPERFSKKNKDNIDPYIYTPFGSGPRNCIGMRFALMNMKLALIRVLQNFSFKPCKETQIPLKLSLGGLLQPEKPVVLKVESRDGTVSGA
Cytochrome P450 3A4, sequence (P08684 whole entry): as above

| Structure (SMILES) | IC50 [1] | IC50 [2] | IC50 [3] | IC50 shift [4] | further results |
| --- | --- | --- | --- | --- | --- |
| Nc1cc(Cc2ccn(Cc3ccc4ccccc4c3)n2)c2nn[nH]c2n1 | 52 nM | 1100 nM | 40 nM | 2.4 | – |
| Nc1cc(Cc2ccn(Cc3cccc(Oc4ccccc4)c3)n2)c2nn[nH]c2n1 | 44 nM | 1100 nM | 11 nM | 2.9 | – |
| Nc1cc(Cc2ccn(Cc3ccc4cnccc4c3)n2)c2nn[nH]c2n1 | 140 nM | 1800 nM | 210 nM | 4.1 | – |
| Nc1cc(Cc2ccn(-c3ccccn3)n2)c2nn[nH]c2n1 | 54 nM | 2000 nM | 210 nM | 3.2 | – |
| Nc1cc(Cc2ccn(Cc3cccc(-c4ccccc4)c3)n2)c2nn[nH]c2n1 | 55 nM | 1100 nM | 17 nM | 2.8 | – |
| Nc1cc(C2CCNC3CCC(CC3)COc3cccc(c3)Cn3cc2cn3)c2nn[nH]c2n1 (stereo not drawn) | 31 nM | – | – | – | – |
| Nc1cc(Cc2ccn(Cc3cccc(C4CCNCC4)c3)n2)c2nn[nH]c2n1 | 100 nM | 21000 nM | 3300 nM | 4.3 | fraction unbound [5]: 0.2; half-life [6]: > 2 h; half-life [7]: 1.2 h; Vd [8]: 0.2 L/kg; clearance [9]: 2.6 mL/min/kg; permeability [10]: Impermeable; IC50 [11]: 2400 nM |
| Nc1cc(Cc2ccn(Cc3cccc(O[C@H]4CCNC4)c3)n2)c2nn[nH]c2n1 | 46 nM | 14000 nM | 13000 nM | 1.6 | – |
| Nc1cc(C2CCNCc3cccc(c3)Oc3cccc(c3)Cn3cc2cn3)c2nn[nH]c2n1 (stereo not drawn) | 36 nM | – | – | – | – |
| Nc1cc(Cc2ccn(-c3ccc(F)cc3)n2)c2nn[nH]c2n1 | 53 nM | 700 nM | 110 nM | 3.3 | – |
| Nc1cc(Cc2ccn(Cc3cccc(Cc4ccccc4)c3)n2)c2nn[nH]c2n1 | 39 nM | 1900 nM | 37 nM | 2.8 | – |
| Nc1cc(Cc2ccn(-c3ccccc3)n2)c2nn[nH]c2n1 | 55 nM | 640 nM | 210 nM | 2.7 | – |
| Nc1cc(C2CCNCC(=O)N(CCc3ccccc3)Cc3cccc(c3)Cn3cc2cn3)c2nn[nH]c2n1 (stereo not drawn) | 29 nM | – | – | – | – |
| Nc1cc(Cc2ccn(Cc3ccccc3)n2)c2nn[nH]c2n1 | 120 nM | 2300 nM | 310 nM | 3.2 | – |
| Nc1cc(Cc2ccn(-c3cccc(-c4ccccc4)c3)n2)c2nn[nH]c2n1 | 85 nM | 710 nM | 7.1 nM | 2.4 | – |
| Nc1cc(Cc2ccn(Cc3ccc4c(c3)CCNC4)n2)c2nn[nH]c2n1 | 58 nM | 6700 nM | 7000 nM | 2.8 | Ratio IC50 [12]: 120; fraction unbound [5]: 0.5; half-life [6]: > 2 h; IC50 [11]: 5000 nM |

The next molecules have a lower IC50 [1] than those just listed; values first:

| IC50 [1] | IC50 [2] | IC50 [3] | Structure (SMILES) | IC50 shift [4] | further results |
| --- | --- | --- | --- | --- | --- |
| 26 nM | – | – | Nc1cc(C2CCNCC3(CCCC3)COc3cccc(c3)Cn3cc2cn3)c2nn[nH]c2n1 (stereo not drawn) | – | – |
| 26 nM | 1700 nM | 140 nM | Nc1cc(Cc2ccn(Cc3cccc(Oc4cccc5c4CNC5)c3)n2)c2nn[nH]c2n1 | 3.3 | – |
| 25 nM | – | – | Nc1cc(C2CCNCc3cccc(c3)COc3cccc(c3)Cn3cc2cn3)c2nn[nH]c2n1 (stereo not drawn) | – | – |
| 21 nM | – | – | Nc1cc(C2CCNCCc3cccc(c3)-c3cccc(c3)Cn3cc2cn3)c2nn[nH]c2n1 (stereo not drawn) | – | – |
| 17 nM | – | – | Nc1cc(C2CCNCCc3cccc(c3)OCc3cccc(c3)Cn3cc2cn3)c2nn[nH]c2n1 (stereo not drawn) | – | – |
| 14 nM | – | – | Nc1cc(C2CCNCCc3cccc(c3)Oc3cccc(c3)Cn3cc2cn3)c2nn[nH]c2n1 (stereo not drawn) | – | – |
| 8 nM | – | – | Nc1cc(C2CCNCc3cccc(c3)OCc3cccc(c3)Cn3cc2cn3)c2nn[nH]c2n1 (stereo not drawn) | – | – |
| 7 nM | – | – | Nc1cc(C2CCNC34CCC(c5ccccc5)(CC3)[C@H](C4)Oc3cccc(c3)Cn3cc2cn3)c2nn[nH]c2n1 (stereo partly drawn) | – | – |
| 5 nM | – | – | Nc1cc([C@H]2CCN[C@H]3C[C@H](Cc4ccccc4)[C@@H](C3)Oc3cccc(c3)Cn3cc2cn3)c2nn[nH]c2n1 | – | – |
